Experimental findings from ChEMBL document CHEMBL1126492, “Cytotoxicity of ent-udoteatrial diacetate and its analogues” (Bioorg Med Chem Lett, 1993) are described below.

In assay [1] the test system is KB. The assay can be described thus: In vitro cytotoxicity against human oral epidermoid carcinoma KB cell line. The assay is classed as functional, cell-based.
For assay [2], the system named is A549. In words: In vitro cytotoxicity against human lung carcinoma A-549 cell line. The assay is classed as functional, cell-based.

Each structure is given as a SMILES string. In brackets after ≈: the same amount, converted by molar mass.

Take `CC(=O)O[C@H]1O[C@@H]2O[C@@H](OC(C)=O)[C@@H]3CC[C@H]([C@@H]1C)[C@H]23`: the 50% inhibitory concentration (IC50) in assay [1] and in assay [2] was over 25 µg/mL in each case.

As to `CC(=O)O[C@@H]1O[C@@H]2O[C@@H](OC(C)=O)[C@@H]3CC[C@H]([C@H]1CC/C=C(\C)CCC=C(C)C)[C@H]23`, the half-maximal inhibitory concentration (IC50) was 1.6 µg/mL (≈ 3.8 µM) in assay [1] and 1.9 µg/mL (≈ 4.52 µM) in assay [2].

For `CC(=O)OC1O[C@@H]2O[C@@H](OC(C)=O)[C@@H]3CC[C@@H]([C@H]23)[C@H]1C` (stereo not given in full), the IC50 in assay [1] and in assay [2] was over 25 µg/mL throughout.

With `CC(=O)O[C@H]1O[C@@H]2O[C@@H](OC(C)=O)[C@@H]3CC[C@H]([C@@H]1CC/C=C(\C)CCC=C(C)C)[C@H]23`, the 50% inhibitory concentration (IC50) was found to be 3.4 µg/mL (≈ 8.08 µM) in assay [1] and 3.9 µg/mL (≈ 9.27 µM) in assay [2].

Regarding `CC(=O)O[C@H]1O[C@@H]2O[C@@H](OC(C)=O)[C@@H]3CC[C@H]([C@H]1CC/C=C(\C)CCC=C(C)C)[C@H]23`, the concentration for half-maximal inhibition (IC50) in assay [1] was 0.4 µg/mL (≈ 0.951 µM); in assay [2], 0.5 µg/mL (≈ 1.19 µM).
